Measurements from PubChem BioAssay (NCI).
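Here, GI50 denotes the concentration required for 50% inhibition of growth. The concentration for full growth arrest is given as TGI.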

How the values were obtained:
Assay in all cases: inhibition of tumour cell growth, NCI panel, 384-well format
SNB-19 CNS = test system: SNB-19 CNS
RXF 393 renal = test system: RXF 393 renal
OVCAR-8 ovarian = test system: OVCAR-8 ovarian
MDA-MB-231 breast = test system: MDA-MB-231 breast
SF-295 CNS = test system: SF-295 CNS
MCF7 breast = test system: MCF7 breast
BT-549 breast = test system: BT-549 breast
CAKI-1 renal = test system: CAKI-1 renal
MDA-MB-468 breast = test system: MDA-MB-468 breast
SN12C renal = test system: SN12C renal
UACC-62 melanoma = test system: UACC-62 melanoma
SK-MEL-2 melanoma = test system: SK-MEL-2 melanoma
NCI-H226 lung = test system: NCI-H226 lung

Structure (SMILES) | GI50 (SNB-19 CNS) | TGI (SNB-19 CNS) | GI50 (RXF 393 renal) | TGI (RXF 393 renal) | GI50 (OVCAR-8 ovarian) | TGI (OVCAR-8 ovarian) | GI50 (MDA-MB-231 breast) | TGI (MDA-MB-231 breast) | GI50 (SF-295 CNS) | TGI (SF-295 CNS) | GI50 (MCF7 breast) | TGI (MCF7 breast) | GI50 (BT-549 breast) | TGI (BT-549 breast) | GI50 (CAKI-1 renal) | TGI (CAKI-1 renal) | GI50 (MDA-MB-468 breast) | TGI (MDA-MB-468 breast) | GI50 (SN12C renal) | TGI (SN12C renal) | also measured
C#Cc1cccc(Nc2ncnc3cc(OCCOC)c(OCCOC)cc23)c1 | > 100 µM | > 100 µM | 7.83 µM | > 27.3 µM | 7.75 µM | > 100 µM | > 46.6 µM | > 100 µM | > 51.9 µM | > 100 µM | > 100 µM | > 100 µM | 14.9 µM | > 100 µM | 1.83 µM | 8.89 µM | 0.183 µM | 0.777 µM | 3.79 µM | > 100 µM | GI50 (UACC-62 melanoma): 6.74 µM; TGI (UACC-62 melanoma): > 90.5 µM; GI50 (SK-MEL-2 melanoma): 8.78 µM; TGI (SK-MEL-2 melanoma): > 100 µM; GI50 (NCI-H226 lung): 9.26 µM; TGI (NCI-H226 lung): > 100 µM
CC(=O)OC[C@H]1O[C@@H](n2ccc(=O)[nH]c2=O)[C@H](OC(C)=O)[C@@H]1OC(C)=O | > 100 µM | > 100 µM | > 100 µM | > 100 µM | > 100 µM | > 100 µM | > 100 µM | > 100 µM | > 100 µM | > 100 µM | > 100 µM | > 100 µM | > 100 µM | > 100 µM | > 100 µM | > 100 µM | > 100 µM | > 100 µM | > 100 µM | > 100 µM | GI50 (UACC-62 melanoma): > 100 µM; TGI (UACC-62 melanoma): > 100 µM; GI50 (SK-MEL-2 melanoma): > 100 µM; TGI (SK-MEL-2 melanoma): > 100 µM; GI50 (NCI-H226 lung): > 100 µM; TGI (NCI-H226 lung): > 100 µM
